These results are taken from paper PMC6934184, “Selective DNA-PKcs inhibition extends the therapeutic index of localized radiotherapy and chemotherapy” (The Journal of Clinical Investigation, 2019).

This experiment has as its target T1, CAMKK1 (CAMKKA) (Homo sapiens, UniProt Q8N5S9).
T1 construct: purchased Thermo Fisher Scientific (Life Technologies) SelectScreen
The experiment can be described thus: SelectScreen LanthaScreen. The note with it: read-out: % displacement. It is filed as binding. In short, it runs like this: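 SelectScreen broad panel; activity (Z'LYTE, Adapta) plus binding formats. ATP: Km app for CSF1R Z'LYTE; 10 for CAMK1 Adapta. Readout = % per kinase.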
(In TR-FRET formats the signal depends on donor and acceptor labels being close together.)

T1 sequence (Q8N5S9 whole entry): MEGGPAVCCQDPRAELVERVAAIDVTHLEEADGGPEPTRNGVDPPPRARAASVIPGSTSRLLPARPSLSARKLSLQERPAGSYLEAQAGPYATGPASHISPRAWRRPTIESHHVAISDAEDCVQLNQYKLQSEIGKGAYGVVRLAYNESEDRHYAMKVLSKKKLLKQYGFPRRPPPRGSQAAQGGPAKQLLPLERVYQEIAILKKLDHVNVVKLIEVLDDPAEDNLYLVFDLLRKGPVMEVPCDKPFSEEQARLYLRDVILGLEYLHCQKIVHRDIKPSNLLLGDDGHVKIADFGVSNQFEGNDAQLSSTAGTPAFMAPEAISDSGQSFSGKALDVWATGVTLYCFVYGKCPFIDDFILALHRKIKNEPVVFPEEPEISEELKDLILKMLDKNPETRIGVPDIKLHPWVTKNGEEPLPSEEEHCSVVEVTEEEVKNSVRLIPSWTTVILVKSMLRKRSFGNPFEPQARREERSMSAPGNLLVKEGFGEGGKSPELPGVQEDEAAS

Take `CN(C(=O)CN1CCOCC1)c1ccc2sc3c(-c4cccc5c(=O)cc(N6CC7CCC(C6)O7)oc45)cccc3c2c1` [NU5455]: the inhibition at 1 µM is -3.8%.
